How the values were obtained:
[1] = target: AeKir1 (Aedes aegypti, UniProt L0EQS9); experiment: thallium (Tl+) flux assay; type: cell-based; details: means (n = 3); read-out: IC50 μM (95% Cl)
[2] = test system: Ae. aegypti; experiment: mosquito fecundity, eggs laid; type: in vivo, Aedes aegypti; details: 72 h post blood feeding; 3.4 μg/mg mosquito
Procedure: The mosquitoes were returned to rearing conditions for 24 h, after which they were transferred to individual egg-laying glass tubes 21 mm×70 mm (Fisher Scientific, Pittsburgh, Pa.) with a piece of coffee filter ([…] USA, Clearwater, Fla.) cut to fit the bottom of the tube. The filter was wetted with 150 μl of dH2O, and the open end of the tube was plugged with a cotton ball. The mosquitoes in their individual egg laying tubes were returned to rearing conditions for an additional 48 h, and the number of eggs laid was counted. Any mosquitoes that died during the 72 h period after blood feeding were excluded from the analysis.

[3] = target: Kir1.1 (Homo sapiens (Human), UniProt P48048); experiment: thallium (Tl+) flux assay; type: cell-based, mammalian
Kir1.1, sequence (P48048 whole entry): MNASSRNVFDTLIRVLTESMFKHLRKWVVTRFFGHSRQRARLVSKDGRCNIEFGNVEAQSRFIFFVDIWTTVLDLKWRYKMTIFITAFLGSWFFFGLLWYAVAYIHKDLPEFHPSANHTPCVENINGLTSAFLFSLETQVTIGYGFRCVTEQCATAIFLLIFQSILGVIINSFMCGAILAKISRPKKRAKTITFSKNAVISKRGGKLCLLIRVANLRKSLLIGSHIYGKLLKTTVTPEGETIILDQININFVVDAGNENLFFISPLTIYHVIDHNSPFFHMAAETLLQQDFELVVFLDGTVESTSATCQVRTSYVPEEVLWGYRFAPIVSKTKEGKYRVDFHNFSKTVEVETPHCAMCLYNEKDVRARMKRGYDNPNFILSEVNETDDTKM

AeKir1, sequence (L0EQS9 1-486): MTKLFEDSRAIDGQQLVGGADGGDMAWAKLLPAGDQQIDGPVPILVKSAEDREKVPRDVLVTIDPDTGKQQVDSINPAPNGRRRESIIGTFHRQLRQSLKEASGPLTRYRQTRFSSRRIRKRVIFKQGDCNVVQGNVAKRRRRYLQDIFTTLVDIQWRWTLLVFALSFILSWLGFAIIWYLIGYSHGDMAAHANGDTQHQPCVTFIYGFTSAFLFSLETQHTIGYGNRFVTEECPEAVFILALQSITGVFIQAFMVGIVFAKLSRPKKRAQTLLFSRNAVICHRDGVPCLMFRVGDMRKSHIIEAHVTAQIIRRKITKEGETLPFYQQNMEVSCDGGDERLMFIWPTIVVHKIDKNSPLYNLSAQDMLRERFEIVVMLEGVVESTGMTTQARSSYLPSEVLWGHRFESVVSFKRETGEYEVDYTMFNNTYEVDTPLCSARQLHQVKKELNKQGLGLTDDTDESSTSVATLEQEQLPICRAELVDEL

O=C(Cn1nc(C(F)(F)F)c2c1CCCC2)N1CCCc2ccccc21 [VU041, 1-(3,4-dihydroquinolin-1(2H)-yl)-2-(3-(trifluoromethyl)-4,5,6,7-tetrahydro-1H-indazol-1-yl)ethan-1-one]
IC50 [1]: 1.7 µM
median number of eggs laid per mosquito [2]: significantly lower median number of eggs per mosquito
inhibition at 30 µM ([3]; concentration of 30 μM): < 10%
IC50 ([3]; means (n = 3), read-out: IC50 μM (95% Cl)): > 30 µM
